Key:
Format in all cases: physicochemical
[1] = Solubility in 2-butanone (MEK)
[2] = Light resistance of PMMA film sample (colorant residual rate); conditions: 170 hours xenon lamp (170 thousands lux, UV cut filter); 5% by weight in PMMA film; absorbance after/before treatment
Method: (§1) Into 25 ml of dichloromethane were dissolved 2.5 g of PMMA, and 0.125 g of the triarylamine derivative, and the solution was coated on a 100 μm-thick PET film. This was dried at 80° C. for 2 hours under reduced pressure to prepare a sample for assessment having a thickness of from 2 to 3 μm. The sample for assessment contained the triarylamine derivative at 5% by weight based on PMMA.
The sample for assessment obtained above was irradiation-treated for 170 hours with a xenon lamp (170 thousands lux, using an UV cut filter). The absorbance of the assessment sample at the maximum absorption wavelength of the triarylamine derivative (colorant) was measured, and a colorant residual rate (%) was obtained as a ratio of the absorbance after irradiation treatment relative to the absorbance before irradiation treatment.

[3] = Wet heat resistance of PMMA film sample (colorant residual rate); conditions: 60° C. and relative humidity of 90% for 200 hours; 5% by weight in PMMA film; absorbance after/before treatment
Method: as §1
The sample for assessment obtained above was subjected to wet heat treatment at 60° C. and a relative humidity of 90% for 200 hours. The absorbance of the assessment sample at the maximum absorption wavelength of the triarylamine derivative (colorant) was measured, and a colorant residual rate (%) was obtained as a ratio of the absorbance after wet heat treatment relative to the absorbance before wet heat treatment.

[4] = Heat resistance of PMMA film sample (colorant residual rate); conditions: 80° C. for 400 hours; 5% by weight in PMMA film; absorbance at maximum absorption wavelength after/before treatment
Method: as §1
The sample for assessment obtained above was heat-treated at 80° C. for 400 hours. The absorbance of the assessment sample at the maximum absorption wavelength of the triarylamine derivative (colorant) was measured, and a colorant residual rate (%) was obtained as a ratio of the absorbance after heat treatment relative to the absorbance before heat treatment.

In the case of `CCCCN(CCCC)c1ccc([N+](=C2C=CC(=[N+](CCCC)CCCC)C=C2)c2ccc(N(CCCC)CCCC)cc2)cc1` [Comparative Example, reference compound], the “Solubility (w/v)” value [1] is reported as 16% w/v %, the “Light Resistance (colorant residual rate)” value [2] is reported as 98% and the “Wet Heat Resistance (colorant residual rate)” value [3] is reported as 45%. The “Heat Resistance (colorant residual rate)” value [4] was 80%.

With `CCCCN(CCCC)c1ccc([N+](=C2C=CC(=[N+](CCCC)CCCC)C=C2C)c2ccc(N(CCCC)CCCC)cc2)cc1` [Compound 79] the “Solubility (w/v)” value [1] was 32% w/v %, the “Light Resistance (colorant residual rate)” value [2] was 99% and the “Wet Heat Resistance (colorant residual rate)” value [3] was 89%. The “Heat Resistance (colorant residual rate)” value [4] was 87%.

With `CCCCN(CCCC)c1ccc([N+](=C2C=CC(=[N+](CCCC)CCCC)C=C2C)c2ccc(N(CCCC)CCCC)cc2)cc1` [Compound 28] the “Solubility (w/v)” value [1] was 23% w/v %, the “Light Resistance (colorant residual rate)” value [2] was 98% and the “Wet Heat Resistance (colorant residual rate)” value [3] was 48%. For the same molecule, the “Heat Resistance (colorant residual rate)” value [4] was 82%.

Source: patent publication US7759504B2, “Triarylamine derivative” (Fujifilm Corporation, priority 2007, dated 2010)
